Source: patent US20110251379A1, “COMPOUNDS USEFUL FOR TREATING NEURODEGENERATIVE DISORDERS” (Satori Pharmaceuticals, Inc., priority 2010, published 2011)

test system: Aβ-38; test: MSD Human (6E10) Ab 3-PLEX elisa, conditioned media of 2B7 cells: Aβ-38; format: cell-based; conditions: Homo sapiens; Aβ-38 (superscript a); read-out: IC50 range
Summary of the method: (§1)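 Confluent 2B7 cells were treated with compounds for 5 hours at 37° C in media with 1% DMSO. Conditioned media, diluted 1:1 in blocking buffer, was incubated overnight at 4 °C or 2 h at room temperature on MSD 6E10 plates. Aβ levels were read against seven-point standard curves, and IC50 was obtained from 4-parameter fits of percent vehicle.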

SMILES | IC50
COC(=O)OCC1C[C@@H](C)[C@H]2C(O1)[C@H](O)[C@@]1(C)C3CC[C@H]4C(C)(C)[C@@H](OC5CN(C(=O)CC6CC6)CCO5)CC[C@@]45C[C@@]35CC[C@]21C (some centres unmarked) | 1 to 10 µM
C[C@@H]1CC(C(=O)O)OC2[C@H]1[C@@]1(C)CC[C@@]34C[C@@]35CC[C@H](OC3CN(C(=O)CC6CC6)CCO3)C(C)(C)[C@@H]5CCC4[C@]1(C)[C@H]2O (some centres unmarked) | > 10 µM
CC(C)[C@@H](OC(=O)C1CCOCC1)C1C[C@@H](C)[C@H]2C(O1)[C@H](O)[C@@]1(C)[C@@H]3CC[C@H]4C(C)(C)C(O)CC[C@@]45C[C@@]35CC[C@]21C (some centres unmarked) | > 10 µM
CCOCC1C[C@@H](C)[C@H]2C(O1)[C@H](O)[C@@]1(C)C3CC[C@H]4C(C)(C)C(O[C@H]5CN(C6COC6)CCO5)CC[C@@]45C[C@@]35CC[C@]21C (some centres unmarked) | 1 to 10 µM

same assay, conditions: Homo sapiens; Aβ-38, 4 μM

SMILES | inhibition at 4 µM
C[C@@H]1CC(COC(=O)N(C)C)OC2[C@H]1[C@@]1(C)CC[C@@]34C[C@@]35CC[C@H](O)C(C)(C)[C@@H]5CCC4[C@]1(C)[C@H]2O (some centres unmarked) | 25 to 75%

same assay, conditions: Homo sapiens; Aβ-38, 20 μM

SMILES | inhibition at 20 µM
C[C@@H]1CC(C(=O)O)OC2C1[C@@]1(C)CC[C@@]34C[C@@]35CC[C@H](OC3CN(C6COC6)CCO3)C(C)(C)[C@@H]5CC[C@H]4[C@]1(C)[C@H]2O (some centres unmarked) | < 25%
C[C@@H]1CC(CNC(C(=O)O)C(F)(F)F)OC2[C@H]1[C@@]1(C)CC[C@@]34C[C@@]35CC[C@H](O[C@H]3CN(C6COC6)CCO3)C(C)(C)[C@@H]5CCC4[C@]1(C)[C@H]2O (some centres unmarked) | < 25%
CC(=O)OCC1C[C@@H](C)[C@H]2C(O1)[C@H](O)[C@@]1(C)C3CC[C@H]4C(C)(C)[C@@H](O[C@H]5CN(C6COC6)CCO5)CC[C@@]45C[C@@]35CC[C@]21C (some centres unmarked) | 25 to 75%
CCOCC1C[C@@H](C)[C@H]2C(O1)[C@H](O)[C@@]1(C)C3CC[C@H]4C(C)(C)C(O[C@H]5CN(C6COC6)CCO5)CC[C@@]45C[C@@]35CC[C@]21C (some centres unmarked) | 25 to 75%

test system: Aβ-40; test: MSD Human (6E10) Ab 3-PLEX elisa, conditioned media of 2B7 cells: Aβ-40; format: cell-based; conditions: Homo sapiens, Aβ-40 (superscript b); read-out: 50% reduction value
Summary of the method: as §1

SMILES | IC50
C[C@@H]1CC(COC(=O)N(C)C)OC2[C@H]1[C@@]1(C)CC[C@@]34C[C@@]35CC[C@H](O)C(C)(C)[C@@H]5CCC4[C@]1(C)[C@H]2O (some centres unmarked) | > 10 µM

same assay, conditions: Homo sapiens, Aβ-40 (superscript b); read-out: IC50 range

SMILES | IC50
C[C@@H]1CC(C(=O)O)OC2[C@H]1[C@@]1(C)CC[C@@]34C[C@@]35CC[C@H](OC3CN(C(=O)CC6CC6)CCO3)C(C)(C)[C@@H]5CCC4[C@]1(C)[C@H]2O (some centres unmarked) | > 10 µM
CC(C)[C@@H](OC(=O)C1CCOCC1)C1C[C@@H](C)[C@H]2C(O1)[C@H](O)[C@@]1(C)[C@@H]3CC[C@H]4C(C)(C)C(O)CC[C@@]45C[C@@]35CC[C@]21C (some centres unmarked) | 1 to 10 µM

same assay, conditions: Homo sapiens; Aβ-40, 20 μM

SMILES | inhibition at 20 µM
C[C@@H]1CC(COC(=O)N(C)C)OC2[C@H]1[C@@]1(C)CC[C@@]34C[C@@]35CC[C@H](O)C(C)(C)[C@@H]5CCC4[C@]1(C)[C@H]2O (some centres unmarked) | 25 to 75%
C[C@@H]1CC(C(=O)O)OC2C1[C@@]1(C)CC[C@@]34C[C@@]35CC[C@H](OC3CN(C6COC6)CCO3)C(C)(C)[C@@H]5CC[C@H]4[C@]1(C)[C@H]2O (some centres unmarked) | < 25%
C[C@@H]1CC(CNC(C(=O)O)C(F)(F)F)OC2[C@H]1[C@@]1(C)CC[C@@]34C[C@@]35CC[C@H](O[C@H]3CN(C6COC6)CCO3)C(C)(C)[C@@H]5CCC4[C@]1(C)[C@H]2O (some centres unmarked) | 25 to 75%
CC(=O)OCC1C[C@@H](C)[C@H]2C(O1)[C@H](O)[C@@]1(C)C3CC[C@H]4C(C)(C)[C@@H](O[C@H]5CN(C6COC6)CCO5)CC[C@@]45C[C@@]35CC[C@]21C (some centres unmarked) | < 25%
CCOCC1C[C@@H](C)[C@H]2C(O1)[C@H](O)[C@@]1(C)C3CC[C@H]4C(C)(C)C(O[C@H]5CN(C6COC6)CCO5)CC[C@@]45C[C@@]35CC[C@]21C (some centres unmarked) | < 75%

same assay, conditions: Homo sapiens; Aβ-40, 100 μM

SMILES | inhibition at 100 µM
COC(=O)OCC1C[C@@H](C)[C@H]2C(O1)[C@H](O)[C@@]1(C)C3CC[C@H]4C(C)(C)[C@@H](OC5CN(C(=O)CC6CC6)CCO5)CC[C@@]45C[C@@]35CC[C@]21C (some centres unmarked) | 25 to 75%

test system: Aβ-42; test: MSD Human (6E10) Ab 3-PLEX elisa, conditioned media of 2B7 cells: Aβ-42; format: cell-based; conditions: Homo sapiens; Aβ-42 (superscript c); read-out: IC50 range
Summary of the method: as §1

SMILES | IC50
C[C@@H]1CC(C(=O)O)OC2[C@H]1[C@@]1(C)CC[C@@]34C[C@@]35CC[C@H](OC3CN(C(=O)CC6CC6)CCO3)C(C)(C)[C@@H]5CCC4[C@]1(C)[C@H]2O (some centres unmarked) | 1 to 10 µM
CC(C)[C@@H](OC(=O)C1CCOCC1)C1C[C@@H](C)[C@H]2C(O1)[C@H](O)[C@@]1(C)[C@@H]3CC[C@H]4C(C)(C)C(O)CC[C@@]45C[C@@]35CC[C@]21C (some centres unmarked) | 1 to 10 µM

same assay, conditions: Homo sapiens; Aβ-42, 20 μM

SMILES | inhibition at 20 µM
C[C@@H]1CC(COC(=O)N(C)C)OC2[C@H]1[C@@]1(C)CC[C@@]34C[C@@]35CC[C@H](O)C(C)(C)[C@@H]5CCC4[C@]1(C)[C@H]2O (some centres unmarked) | 25 to 75%
C[C@@H]1CC(C(=O)O)OC2C1[C@@]1(C)CC[C@@]34C[C@@]35CC[C@H](OC3CN(C6COC6)CCO3)C(C)(C)[C@@H]5CC[C@H]4[C@]1(C)[C@H]2O (some centres unmarked) | < 25%
C[C@@H]1CC(CNC(C(=O)O)C(F)(F)F)OC2[C@H]1[C@@]1(C)CC[C@@]34C[C@@]35CC[C@H](O[C@H]3CN(C6COC6)CCO3)C(C)(C)[C@@H]5CCC4[C@]1(C)[C@H]2O (some centres unmarked) | 25 to 75%
CC(=O)OCC1C[C@@H](C)[C@H]2C(O1)[C@H](O)[C@@]1(C)C3CC[C@H]4C(C)(C)[C@@H](O[C@H]5CN(C6COC6)CCO5)CC[C@@]45C[C@@]35CC[C@]21C (some centres unmarked) | < 25%
CCOCC1C[C@@H](C)[C@H]2C(O1)[C@H](O)[C@@]1(C)C3CC[C@H]4C(C)(C)C(O[C@H]5CN(C6COC6)CCO5)CC[C@@]45C[C@@]35CC[C@]21C (some centres unmarked) | < 25%

same assay, conditions: Homo sapiens; Aβ-42, 100 μM

SMILES | inhibition at 100 µM
COC(=O)OCC1C[C@@H](C)[C@H]2C(O1)[C@H](O)[C@@]1(C)C3CC[C@H]4C(C)(C)[C@@H](OC5CN(C(=O)CC6CC6)CCO5)CC[C@@]45C[C@@]35CC[C@]21C (some centres unmarked) | 25 to 75%
